Patent publication US8637528B2, “Use of PDE7 inhibitors for the treatment of movement disorders” (Omeros Corporation, priority 2007, dated 2014)

Experiments:
PDE7B = PDE7B (Homo sapiens (Human), UniProt Q9NP56); assay: PDE7 phosphodiesterase scintillation proximity assay (SPA), PDE7B; type: biochemical; conditions: for Fold Selectivity for PDE7A versus PDE7B: IC50 against PDE7B divided by IC50 against PDE7A; for 7A/7B Ratio: ratio of the PDE7B and PDE7A IC50 values; for selectivity for inhibition of the PDE7B enzyme as compared to the other PDEs: versus PDE1B, 2A, 3A, 4A, 5A, 8A, 9A, 10A, 11A
[1] = plasma and brain concentration in mice after intraperitoneal injection (LC/MS/MS); type: in vivo, mouse
Procedure: Adult male C57BL/6J; retired breeders, aged between 7-9 months (Jackson Laboratory, Bar Harbor, Me., USA), singly housed.
Just prior to the harvesting of tissues, mice were anesthetized with avertin. Samples of whole brain or plasma were collected from three animals per time point at 15 minutes, 30 minutes, 60 minutes, 120 minutes, and 240 minutes after injection. Blood samples were collected by retro-orbital bleeding. Plasma was prepared and red cells were removed by centrifugation. The mice were perfused with saline to remove contaminating blood. The brains were removed and rapidly frozen in liquid nitrogen for subsequent analysis. The plasma and brain samples were stored at −80° C. or on dry ice and the concentration of compound was determined by LC/MS/MS analysis as follows:
Whole brain tissue was homogenized using a Mini-Beaddeater-8™ (BioSpec Products, Bartlesville, Okla.). Plasma or homogenized brain samples were precipitated with acetonitrile and filtered in 96-well format using Captiva 0.20 micron filtration plates (Varian Corp, Lake Forest, Calif.). Filtrates were evaporated under nitrogen to dryness at 50° C. and were then reconstituted for LC-MS analysis.
Quantitative measurements for inhibitory compound in plasma and brain samples were obtained using a Thermo Ultra triple quadrupole mass spectrometer (Thermo Fisher Scientific, San Jose, Calif.), utilizing electrospray ionization in the multiple reaction monitoring mode of data acquisition. Sample extracts were injected onto a 2.1×30 mm packed Xterra C18-MS high pressure liquid chromatography (HPLC) column (Waters Corp, Milford, Mass.). The mobile phase eluting the compound from the HPLC column was applied using a Thermo Surveyor MS Plus HPLC quaternary pumping system (Thermo Fisher Scientific, San Jose, Calif.) and a HTC PAL autoinjector (LEAP Technologies, Chapel Hill, N.C.).

PDE11A = PDE11A (Homo sapiens (Human), UniProt Q9HCR9); assay: PDE selectivity SPA assay, PDE11A; type: biochemical; conditions: IC50 against PDE11A divided by IC50 against PDE7A
PDE2A = PDE2A (Homo sapiens (Human), UniProt O00408); assay: PDE selectivity SPA assay, PDE2A; type: biochemical; conditions: IC50 against PDE2A divided by IC50 against PDE7A
Procedure: Phosphodiesterase activity was measured by a scintillation proximity assay (SPA, GE Healthcare: Product Code TRKQ7100) with [^3H]-cAMP as the substrate for PDEs 3A, 4A, 8A, or with [^3H]-cGMP as the substrate for PDEs 1B, 2A, 5A, 9A, 10A and 11A. Purified human PDE1B, PDE2A, PDE3A, PDE4A, PDE5A, PDE8A, PDE9A and PDE11A4 were obtained from BPS Bioscience, San Diego, Calif. Purified murine PDE10A was also obtained from BPS Biosciences. […] Therefore, the results obtained using murine PDE10A are believed to be representative of human PDE10.
The purified PDE enzymes were each diluted and stored in a solution containing 25 mM Tris-Cl (pH 8.0), 100 mM NaCl, 0.05% Tween 20, 50% glycerol, and 3 mM DTT. PDE assays were carried out in the following assay cocktail (final concentrations): 50 mM Tris-Cl (pH 8.0), 8.3 mM MgCl2, 1.7 mM EGTA, 0.5 mg/ml BSA, 2.5% DMSO and between 0.2 ng and 6 ng of the PDE protein (depending on the enzyme activity) in a final volume of 0.1 mL.
Reactions were initiated by addition of enzyme, incubated for 20 minutes at 30° C. and then terminated by the addition of 50 μl of SPA beads containing Zn^2+.
The mixture was shaken, and allowed to settle for 3 hours. Then the production of [^3H]-AMP or [^3H]-GMP from the substrate was quantitated by scintillation counting in a Wallac® plate counter. […]

[2] = mouse, 1.0 mg/kg IP, 15 minutes
[3] = mouse, 1.0 mg/kg IP, 30 minutes post injection

Sequence of PDE7B (Q9NP56 107-450 limits assumed): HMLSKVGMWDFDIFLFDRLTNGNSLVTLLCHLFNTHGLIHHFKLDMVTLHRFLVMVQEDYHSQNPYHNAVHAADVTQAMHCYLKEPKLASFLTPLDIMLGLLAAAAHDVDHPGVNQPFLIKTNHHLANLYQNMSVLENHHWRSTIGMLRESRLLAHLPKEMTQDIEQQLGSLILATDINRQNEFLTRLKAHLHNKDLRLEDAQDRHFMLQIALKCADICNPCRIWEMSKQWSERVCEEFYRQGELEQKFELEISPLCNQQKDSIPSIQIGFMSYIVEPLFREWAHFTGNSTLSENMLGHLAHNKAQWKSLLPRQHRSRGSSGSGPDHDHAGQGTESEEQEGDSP
Sequence of PDE2A (O00408 whole entry): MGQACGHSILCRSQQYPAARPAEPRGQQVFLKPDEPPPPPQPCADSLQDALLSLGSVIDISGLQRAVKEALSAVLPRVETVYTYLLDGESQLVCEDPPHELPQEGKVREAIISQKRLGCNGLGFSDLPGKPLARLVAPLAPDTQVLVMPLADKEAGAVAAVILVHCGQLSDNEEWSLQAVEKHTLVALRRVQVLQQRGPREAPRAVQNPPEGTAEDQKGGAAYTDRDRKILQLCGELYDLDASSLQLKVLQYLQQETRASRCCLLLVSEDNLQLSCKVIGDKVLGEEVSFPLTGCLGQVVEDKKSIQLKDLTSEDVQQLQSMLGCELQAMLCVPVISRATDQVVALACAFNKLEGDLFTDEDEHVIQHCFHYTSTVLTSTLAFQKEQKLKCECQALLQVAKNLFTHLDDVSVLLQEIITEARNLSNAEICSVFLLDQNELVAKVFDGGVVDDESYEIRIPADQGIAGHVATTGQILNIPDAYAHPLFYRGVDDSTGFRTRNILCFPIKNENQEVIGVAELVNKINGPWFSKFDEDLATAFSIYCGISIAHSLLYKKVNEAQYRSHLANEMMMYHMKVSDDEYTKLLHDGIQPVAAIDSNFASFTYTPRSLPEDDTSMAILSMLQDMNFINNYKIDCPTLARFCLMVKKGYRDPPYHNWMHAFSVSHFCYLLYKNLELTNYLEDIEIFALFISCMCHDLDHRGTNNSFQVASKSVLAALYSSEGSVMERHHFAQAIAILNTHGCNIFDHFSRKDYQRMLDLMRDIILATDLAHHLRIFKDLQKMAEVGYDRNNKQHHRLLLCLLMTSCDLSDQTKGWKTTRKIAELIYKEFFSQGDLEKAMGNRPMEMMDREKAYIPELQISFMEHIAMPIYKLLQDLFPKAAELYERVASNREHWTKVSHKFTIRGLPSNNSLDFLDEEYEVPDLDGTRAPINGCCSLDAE
Sequence of PDE11A (Q9HCR9 whole entry): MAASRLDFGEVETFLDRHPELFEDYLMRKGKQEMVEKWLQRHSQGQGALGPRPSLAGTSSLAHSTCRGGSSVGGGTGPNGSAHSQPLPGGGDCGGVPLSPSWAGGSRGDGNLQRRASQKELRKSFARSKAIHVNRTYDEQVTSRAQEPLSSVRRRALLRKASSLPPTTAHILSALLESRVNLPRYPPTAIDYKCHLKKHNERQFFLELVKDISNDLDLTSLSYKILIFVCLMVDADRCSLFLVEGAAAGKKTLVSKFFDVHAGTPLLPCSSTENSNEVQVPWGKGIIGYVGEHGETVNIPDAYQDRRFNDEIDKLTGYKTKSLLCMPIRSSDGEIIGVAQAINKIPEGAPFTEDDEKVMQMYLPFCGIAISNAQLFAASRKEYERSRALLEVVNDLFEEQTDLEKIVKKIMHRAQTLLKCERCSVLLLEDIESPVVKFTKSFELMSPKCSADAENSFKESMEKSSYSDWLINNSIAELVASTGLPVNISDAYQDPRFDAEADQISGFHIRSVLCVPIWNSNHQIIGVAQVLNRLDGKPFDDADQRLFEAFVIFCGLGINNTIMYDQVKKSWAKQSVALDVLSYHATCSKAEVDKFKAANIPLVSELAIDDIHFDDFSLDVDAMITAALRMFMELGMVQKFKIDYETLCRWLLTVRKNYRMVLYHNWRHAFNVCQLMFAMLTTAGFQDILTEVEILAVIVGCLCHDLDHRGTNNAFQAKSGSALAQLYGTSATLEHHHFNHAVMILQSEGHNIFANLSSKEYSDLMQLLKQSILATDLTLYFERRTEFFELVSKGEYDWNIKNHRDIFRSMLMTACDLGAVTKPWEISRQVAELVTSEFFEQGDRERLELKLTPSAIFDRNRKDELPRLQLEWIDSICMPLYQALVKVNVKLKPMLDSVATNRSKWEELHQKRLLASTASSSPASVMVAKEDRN

Row | SMILES | IC50 (PDE7B) | potency of PDE7B inhibition, in words (PDE7B) | Fold Selectivity for PDE7A versus PDE7B (PDE7B) | 7A/7B Ratio (PDE7B) | selectivity for inhibition of the PDE7B enzyme as compared to the other PDEs (PDE7B) | maximal brain concentration at dose where efficacy was observed ([1]; mouse, at 0.5 mg/kg, analogous calculation) | Fold Selectivity for PDE7A versus PDE11A (PDE11A) | Fold Selectivity for PDE7A versus PDE2A (PDE2A) | brain tissue concentration [1, 2] | plasma concentration [1, 2] | peak brain level [1, 3] | peak plasma level [1, 3] | brain to plasma ratios ([1]; mouse, 1.0 mg/kg IP, all time points with levels above the lower limit of quantitation) | brain concentration converted to molar ([1]; mouse, 30 minutes after injection of a 1 mg/kg dose) | Ratio of Total Brain Exposure/Total Plasma Exposure ([1]; mouse, IP, AUC brain / AUC plasma, 1.0 mg/kg OM69, 10.0 mg/kg OM056, 30.0 mg/kg OM955 and OM956) | expected maximal brain concentration ([1]; mouse, dose of 0.1 mg/kg, assuming linearity of uptake and uniform brain distribution) | time to wash out of mice ([1]; previously determined from pharmacokinetic studies)
1 | O=C1Nc2c(Cl)ccc(OCCO)c2C2(CCCCC2)N1 [OM955] | 106 nM | moderate potency | 2.0 fold | 2.05 | greater than 50 fold | 292 nM | >192 fold | 209 fold | – | – | – | – | – | – | – | – | –
2 | COc1cc(N)ccc1-c1cc2c(c(=O)[nH]1)C(C1CCCCC1)N=[N+]2C (stereo not drawn) [OM69] | 4.8 nM | high potency | 3.7 fold | 3.69 | 250 fold | – | 7070 fold | 11,100 fold | 25 ng/g | 51 ng/g | 44 ng/g | 59 ng/g | 45-75% | 124 nM | 0.78 | 12.4 nM | ≤ 12 h
